Laboratory results: publication PMC4644980, “The FDA-approved natural product dihydroergocristine reduces the production of the Alzheimer’s disease amyloid-β peptides” (Scientific Reports, 2015)

Legend:
[1] = tested on: endogenous γ-secretase in fibroblast cells from an AD patient; assay: Western blot of APP-CTF in fibroblast cells from an AD patient (PS1 A246E); format: cell-based, human; settings: dose series
Experimental: Fibroblast cells from an AD patient carrying the PS1 missense mutation A246E were treated with various compounds, and the levels of APP-FL, APP-CTF and β-actin, as well as Aβ, were measured as described above. […] (n = 3). […] The levels of β-actin served as equal loading controls.
(§3) Western Blot analysis of full-length APP, APP-CTFs, Notch1-NICD and γ-secretase components was carried out according to the procedures described in the Supplementary information[31].

[2] = tested on: human Notch1 extracellular truncation (NEXT) cleavage by γ-secretase; assay: cleavage of human Notch1 NEXT (NICD Western blot) in HEK293 cells; format: cell-based
Experimental: (§4) The levels of β-actin were used as equal loading controls. […] The levels of β-actin served as equal loading controls.
as §3

[3] = tested on: γ-secretase (APP-CTF processing) in HEK293 cells; assay: Western blot of endogenous APP-FL and APP-CTF in HEK293 cells; format: cell-based; settings: 24 h
Experimental: as §4, §3

γ-secretase = γ-secretase (Homo sapiens, UniProt P49768+Q92542); assay: cell-based luciferase reporter assay for γ-secretase inhibition (T100 cells); set-up: endogenous in cells; host or cells: T-REx HeLa cells (T100) stably transfected with the substrate C99-Gal4-VP16 and a luciferase reporter; settings: 24 h, read-out: IC50, inhibition of APP-C99 processing
Experimental: To identify natural product-based bioactive inhibitors of γ-secretase, we screened 417 natural products by using a cell-based luciferase reporter assay for γ-secretase inhibition (T100, see Methods), which we recently developed in TREx HeLa cells according to the methodology described in ref. [17]. […] Thus, this assay is sufficiently sensitive to detect the inhibitory effects of 100 nM DAPT on cellular γ-secretase activity. Additionally, this new cell-based assay tolerated up to 2% DMSO, which is a great advantage when screening inhibitors in a high-throughput format.
T-REx-HeLa cells (T100) stably overexpressing C99-Gal4-VP16 and luciferase were generated according to the method described in refs [17],[30]. For details, see Supplementary Information.
Cell-based γ-secretase assays were performed using the T100 cell line according to the methods detailed in ref. [30] (for details, see Supplementary information). […]
concentrations of substrate at 37 °C for 4 h, after which the enzymatic reactions were stopped by adding 0.5% SDS (final concentration). The samples were analyzed by Western Blot for AICD-Flag or Aβ. […]

[4] = tested on: γ-secretase subunits (mNCT, PS1-NTF); assay: Western blot of γ-secretase subunits in HEK293 or fibroblast cells; format: cell-based
Experimental: for 10 min before adding 25 µl of the stop solution. The fluorescence was monitored with a microplate reader (emission at 590 nm after excitation at 560 nm).
Western blot and antibodies
WT HEK293 or fibroblast cells were collected and lysed in 1% Nonidet P-40-HEPES buffer, and equal amounts of proteins [normalized by BCA (Pierce)] were separated by SDS-PAGE onto a 12% Tris-glycine gel, transferred onto a PVDF membrane (Bio-Rad, USA) and further probed with antibody CT15 (for APP/APP-CTFs, 1:2000, […]
(1:1000; Abcam, Cambridge, MA, USA) for PS1-NTF, UD-1 (for Pen-2, 1:500; a gift of Dr. Helena Karlström, Karolinska Institute, Sweden), NCT164 (for NCT, 1:1000; BD Bioscience, Bedford, MA, USA) as well as with an antibody for β-actin (1:2000, Abmart). For the analysis of Notch NICD, cell extracts were separated by SDS-PAGE onto a 10% Tris-glycine gel, transferred onto a PVDF membrane and blotted for NICD with an anti-Notch Ab1744 antibody (for the free N-terminus of NICD, 1:500, Cell Signaling Technology, Beverly, MA, USA).
Samples from in vitro γ-secretase activity assays were run on 16% Tricine-SDS-PAGE gels and transferred onto PVDF to detect Aβ and AICD-Flag with 6E10 (1:1000, Covance, Berkeley, CA, USA) and CT15 antibodies (1:5000, Sigma-Aldrich), […]

[5] = tested on: Aβ production in fibroblast cells from an AD patient; assay: Aβ total ELISA of media from fibroblast cells from an AD patient (PS1 A246E); format: cell-based, human
Experimental: (§1) The levels of β-actin were used as equal loading controls. […] The Aβ data are expressed as a percentage of the control value and presented as the means ± sd. […] Fibroblast cells from an AD patient carrying the PS1 missense mutation A246E were treated with various compounds, and the levels of APP-FL, APP-CTF and β-actin, as well as Aβ, were measured as described above. The Aβ data are expressed as a percentage of the control value and presented as the means ± sd. (n = 3). […] The levels of β-actin served as equal loading controls. The densitometric quantifications for the Western Blots are shown in Supplementary Fig. S2. For full blots, please see Supplementary Fig. S9.
(§2) Aβ1-x peptides secreted in the cell media were quantitatively measured by ELISA (IBL, Gunma, Japan) according to the standard protocol from the manufacturer. Aβ40 and Aβ42 generated in the C100-Flag γ-secretase assays stopped with 0.5% SDS (final concentration) were quantified with the human Beta Amyloid or [1–42] colorimetric ELISA kit, respectively.

[6] = tested on: Aβ production in HEK293 cells; assay: Aβ total ELISA of media from HEK293 cells; format: cell-based
Experimental: as §1, §2

C[C@H](NC(=O)Cc1cc(F)cc(F)c1)C(=O)N[C@H](C(=O)OC(C)(C)C)c1ccccc1 [DAPT, N-[N-(3,5-difluorophenylacetyl)-L-alanyl-]-(S)-phenylglycine-t-butyl ester]
accumulation of APP-CTFs [1]: dose-dependent accumulation
preference for APP-based versus Notch-based substrate ([2]; HEK293 cells overexpressing hAPP or Notch1-NEXT): showed no preference
production of intracellular human NICD ([2]; HEK293 cells overexpressing human NEXT, 1 μM): completely blocked
accumulation of the carboxy-terminal fragments of APP (APP-CTFs) [3]: dose-dependent accumulation
IC50 (γ-secretase): ~0.2 µM
assembly and maturation of the protease complex (mNCT, PS1-NTF) [4]: not altered
total Aβ levels [5]: markedly reduced
total Aβ levels [6]: markedly reduced
